Assay [1] has as its system ADP-induced platelet aggregation in canine platelet rich plasma. Nature of the assay: Inhibition of ADP-Induced ex-vivo Platelet Aggregation after oral administration. In kind it is in vivo, mongrel dogs. The note with it: Canis lupus familiaris, Platelet, dog, dose 5 mg/kg. The protocol: Inhibition of ADP-Induced ex-vivo Platelet Aggregation
Control blood samples are obtained 5-10 minutes prior to administration of the test compound in mongrel dogs weighing from 10 to 20 kg. The compound is administered intragasticly, via aqueous gavage, or orally, via gelatin capsule. Blood samples (5 ml) are then obtained at 30 minute intervals for 3 hours, and at 6, 12, and 24 hours after dosing. Each blood sample is obtained by venipuncture of the cephalic vein and is collected directly into a plastic syringe containing one part 3.8% trisodium citrate to nine parts blood.
Ex vivo Canine Platelet Aggregation
The blood samples are centrifuged at 1000 rpm for 10 minutes to obtain platelet rich plasma (PRP). After removal of the PRP, the sample is centrifuged for an additional 10 minutes at 2000 rpm to obtain platelet poor plasma (PPP). Platelet count in the PRP is determined by using a Coulter Counter (Coulter Electronics, Hialeah, Fla.). If the concentration of platelets in the PRP is greater than 300,000 platelets/μl, then the PRP is diluted with PPP to adjust the platelet count to 300,000 platelets/μl. Aliquots of PRP (250 μl) are then placed in siliconized glass cuvettes (7.25×55 mm, Bio/Data Corp, Horsham, Pa.). Epinephrine (final concentration of 1 μM) is then added to the PRP, which is incubated for one minute at 37° C. A stimulator of platelet aggregation, ADP at a final concentration of 10 μM, is then added to the PRP. Platelet aggregation is monitored spectrophotometrically utilizing a light transmission aggregometer (Bio/Data Platelet Aggregation Profiler, Model PAP-4, Bio/Data Corp, Horsham, Pa.). For compound to be tested, the rate of change (slope) of light transmittance and the maximum light transmittance (maximum aggregation) is recorded in duplicate. Platelet aggregation data are reported as the percent decrease (mean±SEM) in slope or maximum aggregation as compared to data obtained from control PRP, which is prepared from blood samples obtained prior to administration of the test compound.

For assay [2], the system named is fixed activated platelets. Nature of the assay: Platelet Aggregation Assay (fixed-activated platelets, fibrinogen-mediated aggregation). In kind it is cell-based. The note with it: Homo sapiens, Platelet, aggregation initiated by human fibrinogen 250 μg/ml, read-out: Inhibition of Fixed Platelet Aggregation (IC50 μM). The protocol: Preparation of Fixed-Activated Platelets
Platelets are isolated from human platelet concentrates using the gel-filtration technique as described by Marguerie, G. A., et al., J. Biol. Chem. 254, 5357-5363 (1979) and Ruggeri, Z. M., et al., J. Clin. Invest. 72, 1-12 (1983). The platelets are suspended at a concentration of 2×10^8 cells/ml in a modified calcium-free Tyrode's buffer containing 127 mM sodium chloride, 2 mM magnesium chloride, 0.42 mM Na2HPO4, 11.9 mM NaHCO3, 2.9 mM KCl, 5.5 mM glucose, 10 mM HEPES, at a pH of 7.35 and 0.35% human serum albumin (HSA). These washed platelets are activated by addition of human a-thrombin at a final concentration of 2 units/ml, followed by thrombin inhibitor I-2581 at a final concentration of 40 μM. To the activated platelets is added paraformaldehyde to a final concentration of 0.50% and this incubated at room temperature for 30 minutes. The fixed activated platelets are then collected by centrifugation at 650×g for 15 minutes. The platelet pellets are washed four times with the above Tyrode's-0.35% HSA buffer and resuspended to 2×10^8 cells/ml in the same buffer.
Platelet Aggregation Assay
The fixed activated platelets are incubated with a selected dose of the compound to be tested for platelet aggregation inhibition for one minute and aggregation initiated by addition of human fibrinogen to a final concentration of 250 μg/ml. A platelet aggregation profiler Model PAP-4 is used to record the platelet aggregation. The extent of inhibition of aggregation is expressed as the percentage of the rate of aggregation observed in the absence of inhibitor.

From patent US6797700B2, “Antithrombotic azacycloalkylalkanoyl peptides and pseudopeptides” (Aventis Pharmaceuticals, Inc., priority 1993, dated 2004) come the findings set out here.

Like-named read-outs stand apart in the source and are kept apart here.

`CCN(CC(=O)N[C@@H](CC(=O)O)C(=O)NCCC1CCCCC1)C(=O)CCCC1CCNCC1` [Example 15, 2-cyclohexyl-N-[N-[N-(4-(piperidin-4-yl)butanoyl)-N-ethylglycyl]aspartyl]-ethylamine]: the inhibition at 5 mg/kg in assay [1] (1 h after dosing, read-out: % Inhibition of ex-vivo Platelet Aggregation After Oral Administration, 1 h) worked out at 35%; in assay [1] (3 h after dosing, read-out: % Inhibition of ex-vivo Platelet Aggregation After Oral Administration, 3 h), 18%. Besides, the IC50 in assay [2] stood at 0.072 µM.

Broadly, the IC50 is the concentration that gives 50% inhibition.
